Structures are written as SMILES. Read-outs that look alike come from different tables or passages of the source. A value given as a limit tells only on which side of the number the result lay.

The results in this text go back to patent publication US12692249B2, “WDR5 inhibitors and modulators” (Vanderbilt University, priority 2019, dated 2026).

The target of one test is WDR5 (Homo sapiens, UniProt P61964). Kind of test: TR-FRET competition binding assay, displacement of 10mer-Thr-FAM MLL peptide probe from His-tagged WDR5. Conditions: WDR5-His tag (residues 24-334) 2 nM; 10mer-Thr-FAM 150 nM; 60 min, room temperature; read-out: Ki for Inhibition of WDR5 by TR-FRET assay. Background: Time-resolved FRET reads energy transfer from a long-lived donor to a nearby acceptor.

The subject of test [1] is MV4:11 human cancer cell lines. The test can be described thus: Cellular viability / anti-proliferative assay, CellTiter-Glo, 5 day protocol. Conditions: read-out: GI50 on cellular proliferation of MV4:11 human cancer cell lines. Format: cell-based. The method, boiled down: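 Luminescent ATP-based viability (CellTiter-Glo) after a 5-day exposure gave GI50 via sigmoidal fitting, averaged over two or more replicates. Compounds spanned 22 two-fold steps down from 30 μM at 0.3% DMSO, on 200 MV-4-11 cells per well grown in IMDM plus 10% FBS.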
For orientation: ATP-based viability assays read luminescence as a measure of living cells.

The mark [2] stands for this setting: Homo sapiens, MV4-11, 120 h, MV4:11 cells, 5 day incubation, CellTiter-Glo, mean of at least two replicates.

Regarding `CCc1cc(OCCOC)c2nccc(N3CCc4c(cc(Cn5ccnc5)cc4-c4cn(C)nc4C(F)(F)F)C3=O)c2c1` [Example 140, 7-((1H-Imidazol-1-yl)methyl)-2-(6-ethyl-8-(2-methoxyethoxy)quinolin-4-yl)-5-(1-methyl-3-(trifluoromethyl)-1H-pyrazol-4-yl)-3,4-dihydroisoquinolin-1(2H)-one], the Ki on WDR5 is less than 0.02 nM. For the same molecule, the GI50 in test [1] (setting [2]) is less than 20 nM.

`COc1cc(CN2CCN3CCOC[C@@H]3C2)c2nccc(N3CCc4c(cc(Cn5ccnc5)cc4-c4cn(C)nc4C(F)(F)F)C3=O)c2c1` [Example 141, (S)-7-((1H-Imidazol-1-yl)methyl)-2-(8-((hexahydropyrazino[2,1-c][1,4]oxazin-8(1H)-yl)methyl)-6-methoxyquinolin-4-yl)-5-(1-methyl-3-(trifluoromethyl)-1H-pyrazol-4-yl)-3,4-dihydroisoquinolin-1(2H)-one]: at WDR5, the Ki was 0.07 nM. For the same molecule, the GI50 in test [1] (setting [2]) was less than 20 nM.

Consider `COc1cc(CN2CCC(OC)CC2)c2nccc(N3CCc4c(cc(Cn5ccnc5)cc4-c4cn(C)nc4C(F)(F)F)C3=O)c2c1` [Example 142, 7-((1H-Imidazol-1-yl)methyl)-2-(6-methoxy-8-((4-methoxypiperidin-1-yl)methyl)quinolin-4-yl)-5-(1-methyl-3-(trifluoromethyl)-1H-pyrazol-4-yl)-3,4-dihydroisoquinolin-1(2H)-one], for which the Ki on WDR5 came out at 0.036 nM. In addition, in test [1] (setting [2]), the GI50 was less than 20 nM.

Consider `COc1cc(CN2CCN(C3CCOCC3)CC2)c2nccc(N3CCc4c(cc(Cn5ccnc5)cc4-c4cn(C)nc4C(F)(F)F)C3=O)c2c1` [Example 143, 7-((1H-Imidazol-1-yl)methyl)-2-(6-methoxy-8-((4-(tetrahydro-2H-pyran-4-yl)piperazin-1-yl)methyl)quinolin-4-yl)-5-(1-methyl-3-(trifluoromethyl)-1H-pyrazol-4-yl)-3,4-dihydroisoquinolin-1(2H)-one], for which the Ki at WDR5 was determined as 0.038 nM. The GI50 in test [1] (setting [2]) is less than 20 nM.

`COCCN1CCN(Cc2cc(OC)cc3c(N4CCc5c(cc(Cn6ccnc6)cc5-c5cn(C)nc5C(F)(F)F)C4=O)ccnc23)CC1` [Example 144, 7-((1H-Imidazol-1-yl)methyl)-2-(6-methoxy-8-((4-(2-methoxyethyl)piperazin-1-yl)methyl)quinolin-4-yl)-5-(1-methyl-3-(trifluoromethyl)-1H-pyrazol-4-yl)-3,4-dihydroisoquinolin-1(2H)-one]: the Ki on WDR5 was 0.047 nM. Further, the GI50 in test [1] (setting [2]) is less than 20 nM.

Consider `CCc1cc(OC)cc2c(N3CCc4c(cc(Cn5ccnc5)cc4-c4cn(C)nc4C(F)(F)F)C3=O)ccnc12` [Example 149, 7-((1H-Imidazol-1-yl)methyl)-2-(8-ethyl-6-methoxyquinolin-4-yl)-5-(1-methyl-3-(trifluoromethyl)-1H-pyrazol-4-yl)-3,4-dihydroisoquinolin-1(2H)-one], for which, at WDR5, the inhibitory constant (Ki) was 0.035 nM. For the same molecule, in test [1] (setting [2]), the GI50 came to 75 nM.

For `COCc1cc(OC)cc2c(N3CCc4c(cc(Cn5ccnc5)cc4-c4cn(C)nc4C(F)(F)F)C3=O)ccnc12` [Example 150, 7-((1H-Imidazol-1-yl)methyl)-2-(6-methoxy-8-(methoxymethyl)quinolin-4-yl)-5-(1-methyl-3-(trifluoromethyl)-1H-pyrazol-4-yl)-3,4-dihydroisoquinolin-1(2H)-one], on WDR5, the Ki worked out at 0.025 nM. Besides, the GI50 in test [1] (MV4:11 cells, 5 day incubation, CellTiter-Glo, mean of at least two replicates) was 27 nM.

With `COc1cc(C2=CCOCC2)c2nc(C)cc(N3CCc4c(cc(Cn5ccnc5)cc4-c4cn(C)nc4C(F)(F)F)C3=O)c2c1` [Example 151, 7-((1H-imidazol-1-yl)methyl)-2-(8-(3,6-dihydro-2H-pyran-4-yl)-6-methoxy-2-methylquinolin-4-yl)-5-(1-methyl-3-(trifluoromethyl)-1H-pyrazol-4-yl)-3,4-dihydroisoquinolin-1(2H)-one], the Ki on WDR5 is less than 0.02 nM. Moreover, in test [1] (setting [2]), the GI50 turned out to be 55 nM.

`CCc1cc(CCC(=O)N2CCOCC2)c2nc(C)cc(N3CCc4c(cc(Cn5ccnc5)cc4-c4cn(C)nc4C(F)(F)F)C3=O)c2c1` [Example 153, 7-((1H-Imidazol-1-yl)methyl)-2-(6-ethyl-2-methyl-8-(3-morpholino-3-oxopropyl)quinolin-4-yl)-5-(1b-methyl-3-(trifluoromethyl)-1H-pyrazol-4-yl)-3,4-dihydroisoquinolin-1(2H)-one]: the Ki on WDR5 was 0.022 nM. Further, in test [1] (setting [2]), the GI50 was 47 nM.

`COc1cc2c(N3CCc4c(cc(Cn5ccnc5)cc4-c4cn(C)nc4C(F)(F)F)C3=O)cc(C)cc2nc1C` [Example 155, 7-((1H-Imidazol-1-yl)methyl)-2-(3-methoxy-2,7-dimethylquinolin-5-yl)-5-(1-methyl-3-(trifluoromethyl)-1H-pyrazol-4-yl)-3,4-dihydroisoquinolin-1(2H)-one]: the Ki at WDR5 turned out to be 0.029 nM. The GI50 in test [1] (setting [2]) is less than 20 nM.

Consider `CCc1cc(COC)c2nc(C)cc(N3CCc4c(cc(Cn5ccnc5)cc4-c4cn(C)nc4C(F)(F)F)C3=O)c2c1` [Example 156, 7-((1H-Imidazol-1-yl)methyl)-2-(6-ethyl-8-(methoxymethyl)-2-methylquinolin-4-yl)-5-(1-methyl-3-(trifluoromethyl)-1H-pyrazol-4-yl)-3,4-dihydroisoquinolin-1(2H)-one], for which the Ki at WDR5 was found to be 0.02 nM. In addition, the GI50 in test [1] (setting [2]) was 28 nM.

As for `COc1cc(C2CCN(C)CC2)c2nc(C)cc(N3CCc4c(cc(Cn5ccnc5)cc4-c4cn(C)nc4C(F)(F)F)C3=O)c2c1` [Example 157, 7-((1H-Imidazol-1-yl)methyl)-2-(6-methoxy-2-methyl-8-(1-methylpiperidin-4-yl)quinolin-4-yl)-5-(1-methyl-3-(trifluoromethyl)-1H-pyrazol-4-yl)-3,4-dihydroisoquinolin-1(2H)-one], at WDR5, the Ki was less than 0.02 nM. In test [1] (setting [2]), the GI50 was less than 20 nM.

Take `CCc1cc(C(=O)Nc2ccncc2)c2nccc(N3CCc4c(cc(Cn5ccnc5)cc4-c4cn(C)nc4C(F)(F)F)C3=O)c2c1` [Example 158, 4-(7-((1H-Imidazol-1-yl)methyl)-5-(1-methyl-3-(trifluoromethyl)-1H-pyrazol-4-yl)-1-oxo-3,4-dihydroisoquinolin-2(1H)-yl)-6-ethyl-N-(pyridin-4-yl)quinoline-8-carboxamide]: on WDR5, the Ki was less than 0.02 nM. Further, the GI50 in test [1] (setting [2]) was 31 nM.

For `COc1cc(COC2CCC2)c2nccc(N3CCc4c(cc(Cn5ccnc5)cc4-c4cn(C)nc4C(F)(F)F)C3=O)c2c1` [Example 159, 7-((1H-Imidazol-1-yl)methyl)-2-(8-(cyclobutoxymethyl)-6-methoxyquinolin-4-yl)-5-(1-methyl-3-(trifluoromethyl)-1H-pyrazol-4-yl)-3,4-dihydroisoquinolin-1(2H)-one], at WDR5, the Ki turned out to be 0.027 nM. Also, the GI50 in test [1] (setting [2]) came out at 159 nM.

On to `CCc1cc(C(=O)Nc2ncco2)c2nccc(N3CCc4c(cc(Cn5ccnc5)cc4-c4cn(C)nc4C(F)(F)F)C3=O)c2c1` [Example 160, 4-(7-((1H-Imidazol-1-yl)methyl)-5-(1-methyl-3-(trifluoromethyl)-1H-pyrazol-4-yl)-1-oxo-3,4-dihydroisoquinolin-2(1H)-yl)-6-ethyl-N-(oxazol-2-yl)quinoline-8-carboxamide], for which, at WDR5, the Ki is less than 0.02 nM. The GI50 in test [1] (setting [2]) is less than 20 nM.

Turning to `COc1cc(C2CCOCC2)c2nc(C)cc(N3CCc4c(cc(Cn5ccnc5)cc4-c4cn(C)nc4C(F)(F)F)C3=O)c2c1` [Example 165, 7-((1H-Imidazol-1-yl)methy)-2-(6-methoxy-2-methyl-8-(tetrahydro-2H-pyran-4-yl)quinolin-4-yl)-5-(1-methyl-3-(trifluoromethyl)-1H-pyrazol-4-yl)-3,4-dihydroisoquinolin-1(2H)-one], on WDR5, the Ki came to 0.042 nM. In addition, in test [1] (Homo sapiens, MV4-11, 120 h), the GI50 turned out to be 129 nM.

As for `COc1cc(COC2CC2)c2nccc(N3CCc4c(cc(Cn5ccnc5)cc4-c4cn(C)nc4C(F)(F)F)C3=O)c2c1` [Example 167, 7-((1H-Imidazol-1-yl)methyl)-2-(8-(cyclopropoxymethyl)-6-methoxyquinolin-4-yl)-5-(1-methyl-3-(trifluoromethyl)-1H-pyrazol-4-yl)-3,4-dihydroisoquinolin-1(2H)-one], the inhibition constant (Ki) on WDR5 turned out to be 0.034 nM. For the same molecule, the GI50 in test [1] (Homo sapiens, MV4-11, 120 h) came out at 106 nM.

For `COc1cc(COC2CCN(C)CC2)c2nccc(N3CCc4c(cc(Cn5ccnc5)cc4-c4cn(C)nc4C(F)(F)F)C3=O)c2c1` [Example 169, 7-((1H-Imidazol-1-yl)methyl)-2-(6-methoxy-8-(((1-methylpiperidin-4-yl)oxy)methyl)quinolin-4-yl)-5-(1-methyl-3-(trifluoromethyl)-1H-pyrazol-4-yl)-3,4-dihydroisoquinolin-1(2H)-one], the Ki at WDR5 is less than 0.02 nM. For the same molecule, the GI50 in test [1] (setting [2]) is less than 20 nM.

Take `CCc1cc(C(=O)NC2CCOCC2)c2nccc(N3CCc4c(cc(Cn5ccnc5)cc4-c4cn(C)nc4C(F)(F)F)C3=O)c2c1` [Example 171, 4-(7-((1H-Imidazol-1-yl)methyl)-5-(1-methyl-3-(trifluoromethyl)-1H-pyrazol-4-yl)-1-oxo-3,4-dihydroisoquinolin-2(1H)-yl)-6-ethyl-N-(tetrahydro-2H-pyran-4-yl)quinoline-8-carboxamide]: the Ki at WDR5 was less than 0.02 nM. Moreover, the GI50 in test [1] (setting [2]) is less than 20 nM.

Consider `CCc1cc(C(=O)NC2CC2)c2nccc(N3CCc4c(cc(Cn5ccnc5)cc4-c4cn(C)nc4C(F)(F)F)C3=O)c2c1` [Example 172, 4-(7-((1H-Imidazol-1-yl)methyl)-5-(1-methyl-3-(trifluoromethyl)-1H-pyrazol-4-yl)-1-oxo-3,4-dihydroisoquinolin-2(1H)-yl)-N-cyclopropyl-6-ethylquinoline-8-carboxamide], for which the Ki on WDR5 is less than 0.02 nM. Also, in test [1] (setting [2]), the GI50 is less than 20 nM.

Usually Ki stands for the dissociation constant of the complex between target and ligand, obtained from inhibition or displacement.
